Laboratory results reported in US11919965B2, “Methods of treating multiple myeloma with bispecific anti-BCMA x anti-CD3 antibodies” (Regeneron Pharmaceuticals, Inc., priority 2019, dated 2024).

Columns and labels:
[1] = system: BCMA-expressing NCI-H929 multiple myeloma tumors; experiment: Xenogenic tumor model, NCI-H929 + human PBMC s.c. in NSG mice, treatment from implantation (Example 10); type: in vivo, mouse; conditions: 4 mg/kg
Method: To determine the in vivo efficacy of BCMA×CD3 bispecific antibodies (Abs), a xenogenic tumor study was performed. Immunodeficient NOD.Cg-Prkdc^scidII2rgtm1Wjl/SzJ (NSG) mice were subcutaneously implanted with a mixture of 10×10^6 BCMA-expressing NCI-H929 multiple myeloma cells and 0.5×10^6 human peripheral blood mononuclear cells (PBMC) isolated from a normal donor. […] The mice were administered Abs twice per week for a total of three weeks, and tumor growth was assessed over 40 days. While BCMA^+ tumors grew similarly in the vehicle-, isotype control-, and CD3-binding control-treated mice, both BCMA×CD3 Abs that were tested prevented the growth of tumors in vivo.
Implantation and measurement of syngeneic tumors: NSG mice were subcutaneously implanted with a mixture of 10×10^6 BCMA-expressing NCI-H929 multiple myeloma cells and 0.5×10^6 PBMC derived from a normal donor. […] The mice were administered Abs twice per week for a total of three weeks. Tumor growth was measured with calipers twice per week for the duration of the experiment. Mice were sacrificed 40 days after tumor implantation.
Calculation of syngeneic tumor growth and inhibition: In order to determine tumor volume by external caliper, the greatest longitudinal diameter (length in mm) and the greatest transverse diameter (width in mm) were determined. Tumor volumes based on caliper measurements were calculated by the formula: Volume (mm^3)=(length× width^2)/2.

[2] = system: established BCMA-expressing NCI-H929 multiple myeloma tumors; experiment: Xenogenic tumor model, established NCI-H929 tumors + human PBMC in NSG mice, treatment from day 5 (Example 12); type: in vivo, mouse; conditions: for Average Tumor Size (mm3) ± SEM on Day 5: day of first dose
Method: To determine the in vivo efficacy of anti-BCMA×anti-CD3 bispecific antibodies (Abs), a xenogenic tumor study was performed. Immunodeficient NOD.Cg-Prkdc^scidII2rg^tm1Wjl/SzJ (NSG) mice were subcutaneously implanted with a mixture of 10×10^6 BCMA-expressing NCI-H929 human multiple myeloma tumor cells and 0.5×10^6 human peripheral blood mononuclear cells (PBMC) isolated from a normal, healthy donor. The tumors were allowed to grow and establish for 5 days until they were approximately 70 mm^3 in size. […] The mice were administered these Abs twice per week for a total of seven doses, and tumor growth was assessed over 55 days.
Implantation and measurement of xenogenic tumors: NSG mice were subcutaneously implanted with a mixture of 10×10^6 BCMA-expressing NCI-H929 multiple myeloma cells and 0.5×10^6 PBMC derived from a normal, healthy donor. The tumors were allowed to grow and establish for 5 days until they were approximately 70 mm^3 in size. […] The mice were administered Abs twice per week for a total of seven doses. Tumor growth was measured with calipers twice per week for the duration of the experiment.
Calculation of xenogenic tumor growth and inhibition: In order to determine tumor volume by external caliper, the greatest longitudinal diameter (length in mm) and the greatest transverse diameter (width in mm) were determined. Tumor volumes based on caliper measurements were calculated by the formula: Volume (mm^3)=(length× width^2)/2.

REGN5459: anti-BCMA×anti-CD3 bispecific antibody: mAb21581 BCMA heavy chain, mAb7221G20 CD3 heavy chain and common light chain; SEQ ID NOs 126, 128, 129
Average Tumor Size (mm3) ± SEM on Day 4 [1]: 26.5 ± 6.2 mm3
Average Tumor Size (mm3) ± SEM on Day 7 [1]: 0 ± 0 mm3
Average Tumor Size (mm3) ± SEM on Day 11 [1]: 0 ± 0 mm3
Average Tumor Size (mm3) ± SEM on Day 14 [1]: 0 ± 0 mm3
Average Tumor Size (mm3) ± SEM on Day 18 [1]: 0 ± 0 mm3
Average Tumor Size (mm3) ± SEM on Day 21 [1]: 0 ± 0 mm3
Average Tumor Size (mm3) ± SEM on Day 28 [1]: 0 ± 0 mm3
Average Tumor Size (mm3) ± SEM on Day 40 [1]: 0 ± 0 mm3
Average Tumor Size (mm3) ± SEM on Day 8 ([2]; 0.04 mg/kg): 152.3 ± 20.0 mm3
Average Tumor Size (mm3) ± SEM on Day 12 ([2]; 0.04 mg/kg): 462.5 ± 57.7 mm3
Average Tumor Size (mm3) ± SEM on Day 15 ([2]; 0.04 mg/kg): 1094.2 ± 78.9 mm3
Average Tumor Size (mm3) ± SEM on Day 19 ([2]; 0.04 mg/kg): 2412.5 ± 184.6 mm3
Average Tumor Size (mm3) ± SEM on Day 22 ([2]; 0.04 mg/kg): 3285.9 ± 227.3 mm3
Average Tumor Size (mm3) ± SEM on Day 5 ([2]; 0.04 mg/kg): 74.9 ± 6.4 mm3
Average Tumor Size (mm3) ± SEM on Day 8 ([2]; 0.4 mg/kg): 171.9 ± 23.2 mm3
Average Tumor Size (mm3) ± SEM on Day 12 ([2]; 0.4 mg/kg): 233.8 ± 63.5 mm3
Average Tumor Size (mm3) ± SEM on Day 15 ([2]; 0.4 mg/kg): 327.2 ± 135.6 mm3
Average Tumor Size (mm3) ± SEM on Day 19 ([2]; 0.4 mg/kg): 606.2 ± 288.8 mm3
Average Tumor Size (mm3) ± SEM on Day 22 ([2]; 0.4 mg/kg): 815.4 ± 387.1 mm3
Average Tumor Size (mm3) ± SEM on Day 27 ([2]; 0.4 mg/kg): 1849.9 ± 903.1 mm3
Average Tumor Size (mm3) ± SEM on Day 30 ([2]; 0.4 mg/kg): 661.8 ± 490.1 mm3
Average Tumor Size (mm3) ± SEM on Day 35 ([2]; 0.4 mg/kg): 996.8 ± 771.0 mm3
Average Tumor Size (mm3) ± SEM on Day 40 ([2]; 0.4 mg/kg): 375.6 ± 375.6 mm3
Average Tumor Size (mm3) ± SEM on Day 55 ([2]; 0.4 mg/kg): 0 ± 0 mm3
Average Tumor Size (mm3) ± SEM on Day 5 ([2]; 0.4 mg/kg): 69.5 ± 4.1 mm3
Average Tumor Size (mm3) ± SEM on Day 8 ([2]; 4 mg/kg): 45.8 ± 9.8 mm3
Average Tumor Size (mm3) ± SEM on Day 15 ([2]; 4 mg/kg): 0 ± 0 mm3
Average Tumor Size (mm3) ± SEM on Day 19 ([2]; 4 mg/kg): 0 ± 0 mm3
Average Tumor Size (mm3) ± SEM on Day 22 ([2]; 4 mg/kg): 0 ± 0 mm3
Average Tumor Size (mm3) ± SEM on Day 27 ([2]; 4 mg/kg): 0 ± 0 mm3
Average Tumor Size (mm3) ± SEM on Day 30 ([2]; 4 mg/kg): 0 ± 0 mm3
Average Tumor Size (mm3) ± SEM on Day 35 ([2]; 4 mg/kg): 0 ± 0 mm3
Average Tumor Size (mm3) ± SEM on Day 40 ([2]; 4 mg/kg): 0 ± 0 mm3
Average Tumor Size (mm3) ± SEM on Day 55 ([2]; 4 mg/kg): 0 ± 0 mm3
Average Tumor Size (mm3) ± SEM on Day 5 ([2]; 4 mg/kg): 61.8 ± 5.2 mm3
